Two molecules from publication PMC12184417, “CDADC1 is a vertebrate-specific dCTP deaminase that metabolizes gemcitabine and decitabine to prevent cellular toxicity” (Proceedings of the National Academy of Sciences of the …, 2025) can be followed below.

Data set [1] addresses T1, DCTD (Homo sapiens, UniProt P32321).
T1 sequence (P32321 1-178): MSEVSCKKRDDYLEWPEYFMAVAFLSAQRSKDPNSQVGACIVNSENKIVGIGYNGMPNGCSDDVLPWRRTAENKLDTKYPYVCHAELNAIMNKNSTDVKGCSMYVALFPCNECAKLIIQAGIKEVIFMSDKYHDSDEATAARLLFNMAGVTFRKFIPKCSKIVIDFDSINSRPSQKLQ
The data set can be described thus: thin-layer chromatography of dCMP deamination. In kind it is biochemical. The following applies: allosteric activator; substrate dCMP; 37 C, 15 min; 50 mM Tris-HCl pH 7.5.

Substrate in data set [2]: Nc1ccn([C@H]2C[C@H](O)[C@@H](COP(=O)(O)OP(=O)(O)OP(=O)(O)O)O2)c(=O)n1
The data set is described as follows: purified protein. The conditions noted are these: 50 mM Tris-HCl pH 7.5, 200 ng enzyme, sigmoidal fit slightly better than Michaelis-Menten. It is filed as biochemical, Homo sapiens.

Consider `Nc1ccn([C@H]2C[C@H](O)[C@@H](COP(=O)(O)OP(=O)(O)OP(=O)(O)O)O2)c(=O)n1` [dCTP], for which, in data set [1], the “thin-layer chromatography of dCMP deamination” value was “DCTD converted dCMP to dUMP, with activity enhanced by the allosteric activator dCTP”.

B1: CDADC1 (Homo sapiens) (protein)
chain: MKEAGQMQNLESARAGRSVSTQTGSMTGQIPRLSKVNLFTLLSLWMELFPAEAQRQKSQKNEEGKHGPLGDNEERTRVSTDKRQVKRTGLVVVKNMKIVGLHCSSEDLHAGQIALIKHGSRLKNCDLYFSRKPCSACLKMIVNAGVNRISYWPADPEISLLTEASSSEDAKLDAKAVERLKSNSRAHVCVLLQPLVCYMVQFVEETSYKCDFIQKITKTLPDANTDFYYECKQERIKEYEMLFLVSNEEMHKQILMTIGLENLCENPYFSNLRQNMKDLILLLATVASSVPNFKHFGFYRSNPEQINEIHNQSLPQEIARHCMVQARLLAYRTEDHKTGVGAVIWAEGKSRSCDGTGAMYFVGCGYNAFPVGSEYADFPHMDDKQKDREIRKFRYIIHAEQNALTFRCQEIKPEERSMIFVTKCPCDECVPLIKGAGIKQIYAGDVDVGKKKADISYMRFGELEGVSKFTWQLNPSGAYGLEQNEPERRENGVLRPVPQKEEQHQDKKLRLGIH
notes: two deaminase domains CDD1 and CDD2
As usually defined, the Km is the concentration of substrate that gives half-maximal velocity. Regarding B1, in data set [2], the Km came out at 288.5 ± 30.6 µM.
